Assay type in all cases: physicochemical
A short description of data set [1]: octanol:water partition coefficient (preformulation study). How it is done: (§1) The physio-chemical properties of ON 01210.Na, as an exemplary efficacious radiation protectant drug, were determined in order to evaluate appropriate formulation approaches for development of a safe, reliable and effective parenteral formulation of this compound and other radioprotective α,β-unsaturated arylsulfones. Evaluation studies included microscopic studies, partition coefficient, pKa, pH solubility studies, pH stability studies under accelerated conditions, solid state characterization of the drug substance, and solid state stability of drug substance under accelerated conditions. […] This drug was reasonably stable in an aqueous environment at biological pH. Therefore, it was determined that ON 01210.Na could be formulated as a shelf stable parenteral formulation.

The nature of data set [2]: pH stability studies under accelerated conditions. Here is the method:
as §1

The nature of data set [3]: accelerated solid-state stability study of the bulk drug substance. Here is the method: as §1

The text below walks through data of patent US9060967B2, “Stable aqueous formulation of (E)-4-carboxystyryl-4-chlorobenzyl sulfone” (ONCONOVA THERAPEUTICS, INC, priority 2010, dated 2015).

Turning to `O=C([O-])c1ccc(/C=C/S(=O)(=O)Cc2ccc(Cl)cc2)cc1.[Na+]` [ON 01210.Na, (E)-4-Carboxystyryl-4-chlorobenzylsulfone, Sodium Salt], in data set [1], the “octanol:water partition coefficient” value is recorded as 1.28-2.87. Further, in data set [2], the degradation rate order result is “pseudo-first-order”. In addition, the “pH-stability profile, degradation” value in data set [2] (acidic conditions) is reported as “rapid”. Also, the pH-stability profile result in data set [2] (neutral and biological pH) is given as “better stability”. Moreover, the accelerated solid-state stability result in data set [3] is “no evidence of degradation”.
